Molecule `*/C(OC)=C(\OC)c1ccc(*)s1` (repeat unit) came in with a glass transition temperature of 91.00 °C.
The same measure for `*C(=O)c1ccc2c(c1)C(=O)N(c1ccc(Oc3ccc(N4C(=O)c5ccc(*)cc5C4=O)cc3Br)c(Br)c1)C2=O` (repeat unit): 296.00 °C; for `*C(=O)c1ccc2c(c1)C(=O)N(c1ccc(Oc3ccccc3N3C(=O)c4ccc(*)cc4C3=O)cc1)C2=O` (repeat unit): 282.50 °C; for `*C(=O)c1ccc2c(c1)C(=O)N(c1ccc(Oc3ccccc3Oc3ccc(N4C(=O)c5ccc(*)cc5C4=O)cc3C(F)(F)F)c(C(F)(F)F)c1)C2=O` (repeat unit): 236.00 °C.
For `*C(=O)c1ccc2c(c1)C(=O)N(c1ccc(Sc3ccc(N4C(=O)c5ccc(*)cc5C4=O)cc3)cc1)C2=O` (repeat unit) the value was 276.00 °C; for `*C(=O)c1ccc2c(c1)C(=O)N(c1ccc3c(c1)Cc1cc(N4C(=O)c5ccc(*)cc5C4=O)ccc1-3)C2=O` (repeat unit), 341.50 °C.
The same measure for `*CCCCCCCCCCCCCCc1ccc(-c2c(-c3ccccc3)cc(-c3ccc(-c4cc(-c5ccccc5)c(-c5ccc(*)cc5)c(-c5ccccc5)c4-c4ccccc4)cc3)c(-c3ccccc3)c2-c2ccccc2)cc1` (repeat unit): 185.00 °C.
With `*CCCCCCCCCCOc1ccc(/C=N/c2ccc(-c3ccc(/N=C/c4ccc(O*)cc4O)c(OC)c3)cc2OC)c(O)c1` (repeat unit), the glass transition temperature came to 72.00 °C.
The same measure for `*CCCCCCCCCCc1ccc(-c2c(-c3ccccc3)cc(-c3ccc(-c4cc(-c5ccccc5)c(-c5ccc(*)cc5)c(-c5ccccc5)c4-c4ccccc4)cc3)c(-c3ccccc3)c2-c2ccccc2)cc1` (repeat unit): 235.00 °C; for `*CCCCCCN1C(=O)C(=O)N(c2ccc(Cc3ccc(N4C(=O)C(=O)N(*)C4=O)cc3)cc2)C1=O` (repeat unit): 158.00 °C.
For `*CCCCCCNC(=O)c1ccc(C(C)(CC)c2ccc(C(=O)N*)cc2)cc1` (repeat unit) the value was 164.00 °C.
In turn, `*CCCCCCNC(=O)c1ccc(C2(C)CC(C)(C)c3ccc(C(=O)N*)cc32)cc1` (repeat unit) registered a glass transition temperature of 190.00 °C.
For `*CCCCCCOC(=O)c1cc(/N=N/c2ccc(OCC)cc2)ccc1-c1ccc(/N=N/c2ccc(OCC)cc2)cc1C(=O)O*` (repeat unit) the value was 83.00 °C; for `*CCCCCCc1ccc(-c2c(-c3ccccc3)cc(-c3ccc(-c4cc(-c5ccccc5)c(-c5ccc(*)cc5)c(-c5ccccc5)c4-c4ccccc4)cc3)c(-c3ccccc3)c2-c2ccccc2)cc1` (repeat unit), 250.00 °C; for `*CCCCCCc1ccc(-c2c(-c3ccccc3)cc(-c3cccc(-c4cc(-c5ccccc5)c(-c5ccc(*)cc5)c(-c5ccccc5)c4-c4ccccc4)c3)c(-c3ccccc3)c2-c2ccccc2)cc1` (repeat unit), 215.00 °C.
The same measure for `*CCCOC(=O)c1cc(/N=N/c2ccc(OCC)cc2)ccc1-c1ccc(/N=N/c2ccc(OCC)cc2)cc1C(=O)O*` (repeat unit): 101.00 °C; for `*CCNC(=O)c1ccc([Si](C)(C)c2ccc(C(=O)NCCN(*)c3ccc(/C=C/c4ccc([N+](=O)[O-])cc4)cc3)cc2)cc1` (repeat unit): 150.00 °C.
The same measure for `*CCOC(=O)c1ccc(C2(C)CC(C)(C)c3ccc(C(=O)O*)cc32)cc1` (repeat unit): 154.00 °C.
Molecule `*CCOCCOCCOC(=O)c1cc(/N=N/c2ccc(OCC)cc2)ccc1-c1ccc(/N=N/c2ccc(OCC)cc2)cc1C(=O)O*` (repeat unit) displayed a glass transition temperature of 65.00 °C.
`*CNC(=O)OC(c1ccco1)C(OC(=O)NCc1ccc(C(C)(C)c2ccc(*)o2)o1)c1ccco1` (repeat unit) yielded a glass transition temperature of 45.00 °C.
For `*Cc1ccc(C(C)(C)c2ccc(CN3C(=O)c4ccc(Oc5ccc6c(c5)C(=O)N(*)C6=O)cc4C3=O)o2)o1` (repeat unit) the value was 116.00 °C; for `*Nc1ccc(C(=O)Nc2ccc(Cc3ccc(NC(=O)c4ccc(NC(=O)c5ccc([Si](C)(C)c6ccc(C(*)=O)cc6)cc5)cc4)cc3)cc2)cc1` (repeat unit), 300.00 °C; for `*Nc1ccc(NC(=O)c2ccc(C(c3ccc(C(*)=O)c(C(=O)OCC)c3)(C(F)(F)F)C(F)(F)F)cc2C(=O)OCC)cc1` (repeat unit), 270.00 °C.
For `*OC(=O)c1ccc(C2(C)CC(C)(C)c3ccc(C(=O)Oc4ccc5c(c4)Oc4cc(*)ccc4C5(C)C)cc32)cc1` (repeat unit) the value was 297.00 °C; for `*Oc1ccc(C(=O)Nc2cc(C(c3ccc(C)c(NC(=O)c4ccc(OC(=O)c5ccc(C(*)=O)cc5)cc4)c3)(C(F)(F)F)C(F)(F)F)ccc2C)cc1` (repeat unit), 213.00 °C; for `*Oc1ccc(C(C)(C)c2ccc(OC(=O)c3ccc4c(c3)C(C)(c3ccc(C(*)=O)cc3)CC4(C)C)cc2)cc1` (repeat unit), 265.00 °C.
As for `*Oc1ccc(NC(=O)c2ccc(NC(=O)c3ccc([Si](C)(C)c4ccc(C(=O)Nc5ccc(C(=O)Nc6ccc(*)cc6)cc5)cc4)cc3)cc2)cc1` (repeat unit), the glass transition temperature was 304.00 °C.
In turn, `*Oc1ccc(OC(=O)c2cc(/N=N/c3ccc(OCC)cc3)ccc2-c2ccc(/N=N/c3ccc(OCC)cc3)cc2C(*)=O)cc1` (repeat unit) came in with a glass transition temperature of 170.00 °C.
For `*Oc1ccc(OC(=O)c2ccc(C(C)(C)c3ccc(C(*)=O)cc3)cc2)cc1` (repeat unit), the glass transition temperature came out at 195.00 °C.
For `*Oc1ccc(Oc2ccc(NC(=O)c3ccc(-c4ccc(C(=O)Nc5ccc(*)cc5)c(C)c4)cc3C)cc2)cc1` (repeat unit) the value was 219.00 °C; for `*Oc1ccc(S(=O)(=O)c2ccc(Oc3ccc(NC(=O)c4ccc(-c5ccc(C(=O)Nc6ccc(*)cc6)c(C)c5)cc4C)cc3)cc2)cc1` (repeat unit), 251.00 °C.
With `*Oc1cccc(OC(=O)c2ccc(C(C)(C)c3ccc(C(*)=O)cc3)cc2)c1` (repeat unit), the glass transition temperature was found to be 158.00 °C.
The same measure for `*Oc1cccc(OC(=O)c2ccc([Si](C)(C)c3ccc(C(*)=O)cc3)cc2)c1` (repeat unit): 134.00 °C; for `*c1ccc(-c2cc(-c3ccc(OCCCC#N)cc3)cc(-c3ccc(-n4c(=O)c5cc6c(=O)n(*)c(=O)c6cc5c4=O)cc3)n2)cc1` (repeat unit): 345.00 °C.
The molecule `*c1ccc(-c2sc(-c3cc(SCCCC)c(*)s3)cc2SCCCC)cc1` (repeat unit) gave a glass transition temperature of 129.00 °C.
As for `*c1ccc(-c2sc(-c3cc(SCCCCCCCC)c(*)s3)cc2SCCCCCCCC)cc1` (repeat unit), the glass transition temperature is 55.30 °C.
The same measure for `*c1ccc(-c2sc(-c3ccc(-c4cc(CCCC)c(*)s4)cc3)cc2CCCC)cc1` (repeat unit): 58.30 °C.
For `*c1ccc(-c2sc(-c3ccc(-c4cc(SCCCC)c(*)s4)cc3)cc2SCCCC)cc1` (repeat unit) the value was 26.40 °C; for `*c1ccc(-n2c(=O)c3cc4c(=O)n(*)c(=O)c4cc3c2=O)cc1` (repeat unit), 417.00 °C.
For `*c1ccc(/C=N/c2ccc(C(c3ccccc3)c3ccc(/N=C/c4ccc(-c5ccc(*)s5)cc4)cc3)cc2)cc1` (repeat unit) the value was 129.00 °C.
The molecule `*c1ccc(C(C#N)(C(=O)OC)C(*)(C#N)C(=O)OC)cc1` (repeat unit) came in with a glass transition temperature of 108.00 °C.
The same measure for `*c1ccc(C(C#N)(C(=O)OCC(C)C)C(*)(C#N)C(=O)OCC(C)C)cc1` (repeat unit): 108.00 °C.
In turn, `*c1ccc(C(C#N)(C(=O)OCC)C(*)(C#N)C(=O)OCC)cc1` (repeat unit) gave a glass transition temperature of 108.00 °C.
`*c1ccc(C(c2ccccc2)c2ccc(-n3c(=O)c4cc5c(=O)n(*)c(=O)c5cc4c3=O)cc2)cc1` (repeat unit) came in with a glass transition temperature of 321.00 °C.
The same measure for `*c1ccc(C(c2ccccc2)c2ccc(N(*)c3ccc(C)cc3)cc2)cc1` (repeat unit): 199.00 °C; for `*c1ccc(C)c(N2C(=O)c3ccc(S(=O)(=O)c4ccc5c(c4)C(=O)N(*)C5=O)cc3C2=O)c1` (repeat unit): 348.00 °C.
For `*c1ccc(C2(c3ccc(-c4cc(-c5ccccc5)c5cc(C6(c7ccc8nc(*)cc(-c9ccccc9)c8c7)c7ccccc7-c7ccccc76)ccc5n4)cc3)c3ccccc3-c3ccccc32)cc1` (repeat unit) the value was 390.00 °C; for `*c1ccc(C2(c3ccc(-c4cc(-c5ccccc5)c5cc(Oc6ccc7nc(*)cc(-c8ccccc8)c7c6)ccc5n4)cc3)c3ccccc3-c3ccccc32)cc1` (repeat unit), 310.00 °C; for `*c1ccc(Cc2ccc(-n3nc(-c4ccccc4)cc3-c3cccc(-c4cc(-c5ccccc5)nn4*)c3)cc2)cc1` (repeat unit), 225.00 °C.
For `*c1ccc(Cc2ccc(-n3nccc3-c3ccc(-c4ccnn4*)cc3)cc2)cc1` (repeat unit) the value was 202.00 °C.
Turning to `*c1ccc(Cc2ccc(S(*)(=O)=O)cc2)cc1` (repeat unit), the glass transition temperature worked out at 227.50 °C.
The same measure for `*c1ccc(N(c2ccc(C#N)cc2)c2ccc(-n3c(=O)c4cc5c(=O)n(*)c(=O)c5cc4c3=O)cc2)cc1` (repeat unit): 353.00 °C; for `*c1ccc(NC(=O)c2ccc(NC(=O)c3ccc([Si](C)(C)c4ccc(C(=O)Nc5ccc(C(=O)Nc6ccc(S(*)(=O)=O)cc6)cc5)cc4)cc3)cc2)cc1` (repeat unit): 315.00 °C.
For `*c1ccc2c(c1)C(=O)N(c1ccc(C(c3ccc(C)c(N4C(=O)c5ccc(C(*)(C(F)(F)F)C(F)(F)F)cc5C4=O)c3)(C(F)(F)F)C(F)(F)F)cc1C)C2=O` (repeat unit) the value was 266.00 °C; for `*c1cccc(NC(=O)c2ccc(-c3ccc(C(=O)Nc4cccc(S(*)(=O)=O)c4)c(C)c3)cc2C)c1` (repeat unit), 260.00 °C.

Source of the values: the PolyMetriX glass transition set.
